Reference: patent publication US20080039410A1, “Inositol 1,4,5-Trisphosphate Receptor Mutants and Uses Thereof” (priority 2004, published 2008)

Tested on: S2+ InsP3R-1
Test: CCh concentration-response of Ca2+ release in Dt-40 3ko cells expressing m3R and S2+ InsP3R-1 constructs
Assay type: cell-based, rat
Details: for maximum peak Δ response to CCh: Fura-2 340/380 ratio; for fold change from WT (CCh EC50): S2 + InsP3R-1 constructs, Table 2; for EC50: fit of normalized initial peak, read-out: EC50 for CCh-induced Ca^2+ release
From the text: The rat S2^+ InsP3R-1 in the expression plasmid pIRES-GFP was digested with the restriction endonuclease SalI. The overhang created by digestion was blunted by using T4 polymerase. An EcoRI linker was then ligated onto the blunted ends of the construct. The entire receptor DNA was excised from the plasmid using EcoRI and ligated into the plasmid MXT-1. The region containing the S2^− splice variant and potential PKA phosphorylation sites was excised from its backbone in pCDNA 3.1+ by RsrII and KasI and ligated into the InsP3R construct in MXT-1. The potential PKA phosphorylation sites Ser-1589 and Ser-1755 were mutated, individually in both splice variants and together in the S2^− splice variant, to alanines or glutamates by using sequential PCR mutagenesis. The outside primers used for the mutagenesis reaction flanked the restriction sites RsrII and KasI. Following mutation, the resulting fragments were cut with RsrII and KasI and inserted into the InsP3R-1 backbone at the corresponding sites. The mutations were confirmed by Big Dye fluorescent sequencing. Mutated receptor DNAs were excised from MXT-1 by using EcoRI and ligated into the mammalian expression vector pGW (provided by Dr. David Yue, Johns Hopkins University). Orientation was confirmed by using restriction enzyme digestion. Mutants were named based on the splice variant, either S2+ or S2− followed by the amino acid present at position 1589 and 1755. Thus, a mutation in S2^+ InsP3R-1 S1755E is designated, “S2+SE,” and in InsP3R-1 […] S1755A is designated “S2^−SA”. Similarly, an S2− InsP3R-1 with mutations in both S1589E and S1755E is designated “S2−EE”. The numbering of residues is based on the full-length rat InsP3R-1.
Dt-40 cells lacking all three InSP3 receptor subtypes were transfected by using electroporation at 350 V and 950 microfarads (4-mm gap cuvette). 2×10^7 cells were co-transfected with 25 μg of the InsP3R-1 cDNA, 25 μof the muscarinic type 3 (m3R) receptor DNA, and 4 μg of the red fluorescent protein plasmid pHcRed1-N1 (Clontech). Cells were incubated with DNA in 500 μl of Opti-MEM media (Invitrogen) on ice for 10 min. The cell/DNA mixture was electroporated, incubated on ice for 30 min, increased to 5 ml with Opti-MEM, and placed in a 5% CO2 incubator at 39° C. for 5 h. The cells were then centrifuged and resuspended in 12 ml of complete RPMI media (Invitrogen). Transfection efficiency was typically ˜20%. Experiments were performed within 32 h of transfection.
Transfected Dt-40 3ko cells were washed once in a HEPES-buffered physiological saline solution (HEPES-PSS) containing (in mM) 5.5 glucose, 137 NaCl, 0.56 MgCl2, 4.7 KCl, 1 Na2HPO4, 10 HEPES (pH 7.4), 1.2 CaCl2, and 1% w/v bovine serum albumin. Cells were then resuspended in bovine serum albumin HEPES-PSS with 1 μM Fura-2 (AM), placed on a 15-mm glass coverslip in a low volume perfusion chamber, and allowed to adhere for 30 min at room temperature. Cells were perfused continuously for 10 min with HEPES-PSS before experimentation to allow complete Fura-2 de-esterification. A field of cells for each experiment was chosen that contained a wide range of transfection efficiency based upon the intensity of red fluorescence emitted when excited at 560 nm. Individual cells that had emission gray levels between 1500 and 2500 were subsequently chosen to standardize expression levels. [Ca^2+]i imaging was performed essentially as described previously by using an inverted epifluorescence Nikon microscope with a 40× oil immersion objective lens (numerical aperture, 1.3) (100). Cells were excited alternately with light at 340 and 380±10 nm bandpass filters (Chroma, Rockingham, Vt.) using a monochrometer (TILL Photonics, Pleasanton, Calif.). Fluorescence images were captured and digitized with a digital camera driven by TILL Photonics software. Images were captured every 2 s with an exposure of 2 ms and 4 by 4 binning. 340/380 ratio images were calculated online and stored immediately to a hard disk. […]

Row | Substance | maximum peak Δ response to CCh | fold change from WT (CCh EC50) | EC50 | fold more sensitive than S2+WT (CCh-induced Ca^2+ release) | fold more sensitive than nonphosphorylatable S2+SA | sensitivity of CCh-induced Ca^2+ release relative to other constructs
1 | S2+ES: S2+ InsP3R-1, long splice variant with S1589E | 0.59±0.2 ratio units | 1.3 fold | 23.7 ± 1.2 nM | – | – | –
2 | S2+SE: phosphomimetic S2+ InsP3R-1, long splice variant of S1755E | 0.59±0.1 ratio units | 8.9 fold | 3.6 ± 0.2 nM | ~9 fold | ~32 fold | increased sensitivity
